According to PubChem BioAssay (NCI):
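Here, GI50 denotes the concentration required for 50% inhibition of growth. TGI marks complete inhibition of growth.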

Tests used:
Assay in all cases: NCI anticancer screen, dose series, 384-well format
786-0 renal = test system: 786-0 renal
A498 renal = test system: A498 renal
A549 NSCLC = test system: A549 NSCLC
ACHN renal = test system: ACHN renal
BT-549 breast = test system: BT-549 breast
CAKI-1 renal = test system: CAKI-1 renal
CCRF-CEM leukemia = test system: CCRF-CEM leukemia
COLO 205 colon = test system: COLO 205 colon
DU-145 prostate = test system: DU-145 prostate
HCC-2998 colon = test system: HCC-2998 colon
HCT-116 colon = test system: HCT-116 colon
HCT-15 colon = test system: HCT-15 colon
HL-60(TB) leukemia = test system: HL-60(TB) leukemia
HOP-62 NSCLC = test system: HOP-62 NSCLC
HOP-92 NSCLC = test system: HOP-92 NSCLC
HT29 colon = test system: HT29 colon
IGROV1 ovarian = test system: IGROV1 ovarian
K-562 leukemia = test system: K-562 leukemia
KM12 colon = test system: KM12 colon
LOX IMVI melanoma = test system: LOX IMVI melanoma
M14 melanoma = test system: M14 melanoma
MALME-3M melanoma = test system: MALME-3M melanoma
MCF7 breast = test system: MCF7 breast
MDA-MB-231 breast = test system: MDA-MB-231 breast
MDA-MB-435 melanoma = test system: MDA-MB-435 melanoma
MDA-MB-468 breast = test system: MDA-MB-468 breast
MOLT-4 leukemia = test system: MOLT-4 leukemia
NCI-H226 lung = test system: NCI-H226 lung
NCI-H23 lung = test system: NCI-H23 lung
NCI-H322M lung = test system: NCI-H322M lung
NCI-H460 NSCLC = test system: NCI-H460 NSCLC
NCI-H522 lung = test system: NCI-H522 lung
NCI/ADR-RES ovarian = test system: NCI/ADR-RES ovarian
OVCAR-3 ovarian = test system: OVCAR-3 ovarian
OVCAR-4 ovarian = test system: OVCAR-4 ovarian
OVCAR-5 ovarian = test system: OVCAR-5 ovarian
OVCAR-8 ovarian = test system: OVCAR-8 ovarian
PC-3 prostate = test system: PC-3 prostate
RPMI-8226 leukemia = test system: RPMI-8226 leukemia
RXF 393 renal = test system: RXF 393 renal
SF-268 CNS = test system: SF-268 CNS
SF-295 CNS = test system: SF-295 CNS
SF-539 CNS = test system: SF-539 CNS
SK-MEL-2 melanoma = test system: SK-MEL-2 melanoma
SK-MEL-28 melanoma = test system: SK-MEL-28 melanoma
SK-MEL-5 melanoma = test system: SK-MEL-5 melanoma
SK-OV-3 ovarian = test system: SK-OV-3 ovarian
SN12C renal = test system: SN12C renal
SR leukemia = test system: SR leukemia
SW-620 colon = test system: SW-620 colon
T-47D breast = test system: T-47D breast
TK-10 renal = test system: TK-10 renal
U251 glioblastoma = test system: U251 glioblastoma
UACC-257 melanoma = test system: UACC-257 melanoma
UACC-62 melanoma = test system: UACC-62 melanoma
UO-31 renal = test system: UO-31 renal

CS[C@@]1(C(=O)Nc2ccc3[nH]nc(-c4ccc(OC(C)C)nc4)c3c2)CCN(CC(=O)N2CC=C(c3ccc(-c4ncn(C)n4)cc3)CC2)C1
GI50 ([…]-0 renal): 1.77 µM
TGI (786-0 renal): > 100 µM
GI50 (A498 renal): 2.52 µM
TGI (A498 renal): > 100 µM
GI50 (A549 NSCLC): 0.302 µM
TGI (A549 NSCLC): > 100 µM
GI50 (ACHN renal): 2.25 µM
TGI (ACHN renal): > 100 µM
GI50 (BT-549 breast): 2.03 µM
TGI (BT-549 breast): > 100 µM
GI50 (CAKI-1 renal): 0.273 µM
TGI (CAKI-1 renal): > 100 µM
GI50 (CCRF-CEM leukemia): 5.12 µM
TGI (CCRF-CEM leukemia): > 100 µM
GI50 (COLO 205 colon): 0.02 µM
TGI (COLO 205 colon): 0.194 µM
GI50 (DU-145 prostate): 61.6 µM
TGI (DU-145 prostate): > 100 µM
GI50 (HCC-2998 colon): 0.0242 µM
TGI (HCC-2998 colon): 0.222 µM
GI50 (HCT-116 colon): 0.122 µM
TGI (HCT-116 colon): 2.39 µM
GI50 (HCT-15 colon): 2.82 µM
TGI (HCT-15 colon): > 100 µM
GI50 (HL-60(TB) leukemia): 0.0437 µM
TGI (HL-60(TB) leukemia): 1.35 µM
GI50 (HOP-62 NSCLC): 0.476 µM
TGI (HOP-62 NSCLC): > 100 µM
GI50 (HOP-92 NSCLC): 0.189 µM
TGI (HOP-92 NSCLC): 0.631 µM
GI50 (HT29 colon): 0.0431 µM
TGI (HT29 colon): > 100 µM
GI50 (IGROV1 ovarian): 0.514 µM
TGI (IGROV1 ovarian): > 100 µM
GI50 (K-562 leukemia): 0.819 µM
TGI (K-562 leukemia): > 100 µM
GI50 (KM12 colon): 0.297 µM
TGI (KM12 colon): > 100 µM
GI50 (LOX IMVI melanoma): 0.0904 µM
TGI (LOX IMVI melanoma): 0.267 µM
GI50 (M14 melanoma): 0.0125 µM
TGI (M14 melanoma): 0.109 µM
TGI (MALME-3M melanoma): 0.0221 µM
GI50 (MCF7 breast): > 100 µM
TGI (MCF7 breast): > 100 µM
GI50 (MDA-MB-231 breast): 0.373 µM
TGI (MDA-MB-231 breast): 34.3 µM
GI50 (MDA-MB-435 melanoma): 0.0963 µM
TGI (MDA-MB-435 melanoma): > 100 µM
GI50 (MDA-MB-468 breast): 0.907 µM
TGI (MDA-MB-468 breast): 7.33 µM
GI50 (MOLT-4 leukemia): 2.56 µM
TGI (MOLT-4 leukemia): 8.65 µM
GI50 (NCI-H226 lung): 0.595 µM
TGI (NCI-H226 lung): 21.6 µM
GI50 (NCI-H23 lung): 0.0171 µM
TGI (NCI-H23 lung): 0.136 µM
GI50 (NCI-H322M lung): 0.438 µM
TGI (NCI-H322M lung): > 100 µM
GI50 (NCI-H460 NSCLC): 0.884 µM
TGI (NCI-H460 NSCLC): > 100 µM
GI50 (NCI-H522 lung): 7.97 µM
TGI (NCI-H522 lung): > 100 µM
GI50 (NCI/ADR-RES ovarian): 3.77 µM
TGI (NCI/ADR-RES ovarian): > 100 µM
GI50 (OVCAR-3 ovarian): 5.37 µM
TGI (OVCAR-3 ovarian): > 100 µM
GI50 (OVCAR-4 ovarian): 1.8 µM
TGI (OVCAR-4 ovarian): > 100 µM
GI50 (OVCAR-5 ovarian): 0.108 µM
TGI (OVCAR-5 ovarian): > 100 µM
GI50 (OVCAR-8 ovarian): 5.37 µM
TGI (OVCAR-8 ovarian): > 100 µM
GI50 (PC-3 prostate): 18.8 µM
TGI (PC-3 prostate): > 100 µM
GI50 (RPMI-8226 leukemia): 0.536 µM
TGI (RPMI-8226 leukemia): 2.44 µM
GI50 (RXF 393 renal): 0.354 µM
TGI (RXF 393 renal): 2.2 µM
GI50 (SF-268 CNS): > 100 µM
TGI (SF-268 CNS): > 100 µM
GI50 (SF-295 CNS): 12.8 µM
TGI (SF-295 CNS): > 100 µM
GI50 (SF-539 CNS): 1.36 µM
TGI (SF-539 CNS): 47.8 µM
GI50 (SK-MEL-2 melanoma): 0.0386 µM
TGI (SK-MEL-2 melanoma): 0.207 µM
TGI (SK-MEL-28 melanoma): 0.0583 µM
GI50 (SK-MEL-5 melanoma): 0.0589 µM
TGI (SK-MEL-5 melanoma): 1.73 µM
GI50 (SK-OV-3 ovarian): 17.2 µM
TGI (SK-OV-3 ovarian): > 100 µM
GI50 (SN12C renal): 3.37 µM
TGI (SN12C renal): > 100 µM
GI50 (SR leukemia): 0.375 µM
TGI (SR leukemia): 4 µM
GI50 (SW-620 colon): 0.112 µM
TGI (SW-620 colon): > 100 µM
GI50 (T-47D breast): 5.69 µM
TGI (T-47D breast): > 100 µM
GI50 (TK-10 renal): 0.561 µM
TGI (TK-10 renal): > 100 µM
GI50 (U251 glioblastoma): 1.53 µM
TGI (U251 glioblastoma): > 100 µM
GI50 (UACC-257 melanoma): 0.0167 µM
TGI (UACC-257 melanoma): 0.0976 µM
GI50 (UACC-62 melanoma): 0.011 µM
TGI (UACC-62 melanoma): 0.215 µM
GI50 (UO-31 renal): 0.81 µM
TGI (UO-31 renal): > 100 µM
